Measurements as given in publication PMC3152581 (Journal of natural products, 2010).

Biological target: BACE1 (memapsin-2) (Homo sapiens, UniProt P56817)
Test: BACE1 assay
Format: biochemical
Conditions: biological screening; result in words

BACE1 (memapsin-2), sequence (P56817 46-501): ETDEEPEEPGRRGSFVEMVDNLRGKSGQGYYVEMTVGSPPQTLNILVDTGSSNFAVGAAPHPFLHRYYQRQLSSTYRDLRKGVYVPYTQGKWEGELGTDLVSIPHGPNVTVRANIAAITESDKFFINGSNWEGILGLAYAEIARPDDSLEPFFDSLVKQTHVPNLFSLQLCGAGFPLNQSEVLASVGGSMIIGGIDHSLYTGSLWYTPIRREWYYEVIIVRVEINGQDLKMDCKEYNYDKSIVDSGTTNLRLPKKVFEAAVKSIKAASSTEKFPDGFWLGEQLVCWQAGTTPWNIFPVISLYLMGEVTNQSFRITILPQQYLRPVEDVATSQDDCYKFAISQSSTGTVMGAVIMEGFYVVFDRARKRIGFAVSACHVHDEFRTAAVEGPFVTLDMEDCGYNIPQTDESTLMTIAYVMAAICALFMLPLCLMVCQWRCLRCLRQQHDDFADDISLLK

Question: How did the “Inhibition of BACE1 (in words)” value turn out when C[C@@]12CC[C@H](O)[C@@H]3COC(=C31)C(=O)c1cc3c(OCCO)cccc3cc12 [Compound 1, Xestosaprol F] was run?
Answer: significantly less active
